# Laboratory results: patent US10233177B2, “TRPV1 vanilloid receptor antagonists with a bicyclic portion” (Serentrix LLC, priority 2010, dated 2019)
# Read-outs that look alike come from different tables or passages of the source.
# Key:
# [1] = tested on: CFA-induced tactile allodynia; experiment: CFA-induced tactile allodynia in rats (von Frey filaments); format: in vivo; conditions: rat, 30 μmol/kg oral
# Protocol: CFA-Induced Tactile Allodynia in Rats
# Male SD rats (Charles River, Italy) weighing 100 to 250 g were put into a clean plastic cage on an elevated glass plate for 30 min before the test. This lets the animals accommodate to their new environment before testing. Complete Freund's adjuvant (CFA, 50 μl) was injected into the plantar surface of the right hind paw. Tactile stimulation was performed with von Frey filaments (from 0.07 to 26 g). All antagonists were orally administered 22 hours after to the CFA administration. Von Frey filaments were applied 30, 60, 120, 180, 240, 300 and 360 min after compound administrations. Median 50% (EG50) threshold of von Frey filaments was calculated by using the up-down method as previously described. All tested compounds were suspended in 0.5% Methocel and 2.5% Tween80 and orally administrated (30 μmol/kg/10 ml) to rats by gavage 24 hours after the CFA treatment. CFA was injected into the plantar surface of a rat's hind paw at a fixed dose of 50 μl by the use of a micro syringe.
# [2] = tested on: CCI-induced mechanical hyperalgesia; experiment: CCI-induced mechanical hyperalgesia (Randall-Selitto paw pressure); format: in vivo; conditions: rat CCI, 30 μmol/kg oral
# Protocol: CCI-Induced Mechanical Hyperalgesia
# Male SD rats (Charles River, Italy) weighing 250 g were anaesthetized with sodium pentobarbital (60 mg/kg, intraperitoneal (i.p.), 0.1 ml/10 g) and, under a dissecting microscope, the right common sciatic nerve was exposed at the level of the mid thigh and, proximal to the trifurcation of the nerve; four ligatures (4/0 chromic silk, Ethicon) were loosely tied around it, at about 0.5 mm spacing, until they elicited a brief twitch in the respective hind, taking care to preserve epineural circulation. Sham-operated animals (sciatic exposure without ligation) were used as controls. 14 days after the surgery, mechanical hyperalgesia was assessed using an analgesimeter (Ugo Basile, Italy, Randall-Selitto analgesic apparatus). This device generated a mechanical force on the affected paw and the nociceptive threshold was defined as the force (in g) at which the rat withdraws the paw (with a cut-off of 450 g). Two baseline measurement values were obtained 75 and 45 min before the actual test. After the second baseline measurement, animals were randomly allocated to the different treatment groups. Paw pressure test was performed 0, 75, 120, 165, 210 and 300 min after the oral administration of the compounds. All tested compounds were orally administrated (30 μmol/kg/10 ml) to rats by gavage.
# [3] = tested on: CFA-induced thermal hyperalgesia; experiment: CFA-induced thermal hyperalgesia in rats (Hargreaves' test); format: in vivo; conditions: rat, 30 μmol/kg oral; read-out: reversal of CFA-induced thermal hyperalgesia (maximal reversal activity / % of reversion)
# Text: CFA-Induced Thermal Hyperalgesia in Rats
# This method was used for the determination of acute nociceptive thermal threshold and combines a chemical stimulus and heat for measuring pain sensitivity. Male SD rats (Charles River, Italy) weighing 100 to 250 gr. were used. Anti-hyperalgesic effects were investigated by using the Hargreaves' test. Complete Freund's Adjuvant (CFA; Sigma, USA) was used to induce thermal hyperalgesia. CFA contains killed Mycobacterium tuberculosis and is designed to provide continuous release of antigens necessary for stimulating a strong, persistent immune response. This effect causes the reduction of the hind paw withdrawal response latency induced by heat during the Hargreaves' test. Thermal stimulation was performed 30, 60, 120 and 180 (240 min only if needed) minutes after the oral administration of the antagonists. During the CFA-induced thermal hyperalgesia experiments two different solubilization protocols were used: when items presented an amino group, a pH=2 aqueous solution of HCl and 2.5% Tween80 was used; otherwise molecules were suspended in 0.5% Methocel and 2.5% Tween80. Compounds were orally administrated (30 μmol/kg/10 ml) to rats 24 hours after the CFA treatment. CFA was injected into the plantar surface of a rat's hind paw at a fixed dose of 50 μl by the use of a micro syringe.
# TRPV1 = TRPV1 (Rattus norvegicus (Rat), UniProt O35433); experiment: Ca2+ fluorescence measurements in cultured rat dorsal root ganglia neurons (capsaicin-induced calcium uptake); format: cell-based; conditions: rat DRG neurons; for inhibition at 0.3 µM: DRG neuron
# TRPV1, sequence (O35433 whole entry): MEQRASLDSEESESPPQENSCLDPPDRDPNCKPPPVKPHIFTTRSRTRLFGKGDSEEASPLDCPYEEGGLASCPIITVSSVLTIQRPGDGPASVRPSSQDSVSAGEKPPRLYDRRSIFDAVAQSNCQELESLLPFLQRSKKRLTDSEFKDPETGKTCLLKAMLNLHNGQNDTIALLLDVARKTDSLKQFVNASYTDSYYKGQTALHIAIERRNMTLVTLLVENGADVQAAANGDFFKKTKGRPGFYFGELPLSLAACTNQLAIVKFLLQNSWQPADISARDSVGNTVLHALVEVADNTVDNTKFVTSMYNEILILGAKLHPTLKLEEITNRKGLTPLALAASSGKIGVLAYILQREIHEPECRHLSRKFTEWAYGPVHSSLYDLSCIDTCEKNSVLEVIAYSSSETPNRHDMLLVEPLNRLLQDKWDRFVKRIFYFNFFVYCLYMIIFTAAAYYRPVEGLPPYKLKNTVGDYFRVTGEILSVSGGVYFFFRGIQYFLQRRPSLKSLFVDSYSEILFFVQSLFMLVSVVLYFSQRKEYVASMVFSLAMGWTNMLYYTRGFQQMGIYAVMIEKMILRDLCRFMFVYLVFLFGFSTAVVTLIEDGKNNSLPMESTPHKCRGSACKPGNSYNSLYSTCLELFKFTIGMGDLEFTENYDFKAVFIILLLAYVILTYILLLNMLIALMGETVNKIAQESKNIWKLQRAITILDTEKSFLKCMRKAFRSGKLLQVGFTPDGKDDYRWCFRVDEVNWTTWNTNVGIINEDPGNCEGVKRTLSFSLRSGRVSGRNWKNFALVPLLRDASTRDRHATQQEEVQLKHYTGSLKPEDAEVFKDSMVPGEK
# [4] = Rectal temperature measurements in rats; format: in vivo; conditions: rat, 10 μmol/Kg intraperitoneal
# Protocol: Rectal Temperature Measurements in Rats
# Body temperature was measured by a digital thermometer inserted at a depth of approximately 3 cm into the rectum of each animal (male SD rats, Charles River, Italy, 100 to 250 g). A pre-dose value of body temperature was measured prior to the administration of the test substance or vehicles. Animals were distributed among groups by the manual method to achieve the almost same mean values of body temperature of the groups based on the pre-dose value. All compounds were dissolved in 6% DMSO/6% Tween80 and then intraperitoneally (10 μmol/Kg/5 ml) administrated to rats.
# [5] = 300 nM, read-out: abolition of capsaicin response at 300 nM
# [6] = Table 1, formula IA-C, 300 nM against calcium uptake induced by 30 nM capsaicin, read-out: % inhibition at 300 nM
# [7] = capsaicin-induced calcium uptake, read-out: inhibition of the calcium uptake
# [8] = Table 1, against capsaicin-evoked [Ca2+]i mobilization, read-out: IC50
# [9] = read-out: IC50 against capsaicin-evoked [Ca2+]i mobilization
Structure (SMILES),"duration of effect on CFA-induced tactile allodynia, post-treatment [1]",reversal of CFA-induced tactile allodynia [1] [%],anti-hyperalgesic activity (in words) [2],reversal of hyperalgesia within the first 2 hours [2],inhibition in vivo at 30 µmol/kg [3] [%],inhibition at 0.3 µM (TRPV1; [5]) [%],inhibition at 0.3 µM (TRPV1; [6]) [%],inhibition at 0.3 µM (TRPV1; [7]) [%],IC50 (TRPV1; [8]) [nM],IC50 (TRPV1; [9]) [nM],effect on rectal body temperature [4]
"O=C(NCc1ccc(C(F)(F)F)cc1N1CCCC1)Nc1cccc2[nH]c(=O)[nH]c12 [Example 5, 1-(4-(trifluoromethyl)-2-(pyrrolidin-1-yl)benzyl)-3-(2,3-dihydro-2-oxo-1H-benzo[d]imidazol-4-yl)urea]",up to 240 min,60,relevant and long lasting anti-hyperalgesic activity,at least 80%,53,~100,100,> 80,1,1,
"O=C(NCc1ccc(Cl)cc1N1CCCC1)Nc1cccc2[nH]c(=O)[nH]c12 [Example 12, 1-(4-chloro-2-(pyrrolidin-1-yl)benzyl)-3-(2,3-dihydro-2-oxo-1H-benzo[d]imidazol-4-yl)urea]",up to 300 min,62,,,65,,88,> 80,6,6,
"O=C(NCc1ccc(C(F)(F)F)cc1N1CCCCC1)Nc1cccc2oc(=O)[nH]c12 [Example 31, 1-(4-(trifluoromethyl)-2-(piperidin-1-yl)benzyl)-3-(2,3-dihydro-2-oxobenzo[d]oxazol-4-yl)urea]",,,relevant and long lasting anti-hyperalgesic activity,at least 80%,47,~100,100,> 80,1.9,1.9,−1.5 °C
"CN(C)c1cc(C(F)(F)F)ccc1CNC(=O)Nc1cccc2c1OCC(=O)N2 [Example 46, 1-(2-(dimethylamino)-4-(trifluoromethyl)benzyl)-3-(3,4-dihydro-3-oxo-2H-benzo[b][1,4]oxazin-8-yl)urea]",,,relevant and long lasting anti-hyperalgesic activity,at least 80%,50,~100,94,> 80,3,3,+0.8 °C
"O=C1COc2c(cccc2NC(=O)NCc2ccc(Cl)cc2)N1 [Example 49, 1-(4-chlorobenzyl)-3-(3,4-dihydro-3-oxo-2H-benzo[b][1,4]oxazin-8-yl)urea]",,72,relevant and long lasting anti-hyperalgesic activity,at least 80%,52,,68,,,,
"O=C1COc2c(cccc2NC(=O)NCc2ccc(Cl)cc2N2CCCC2)N1 [Example 51, 1-(4-chloro-2-(pyrrolidin-1-yl)benzyl)-3-(3,4-dihydro-3-oxo-2H-benzo[b][1,4]oxazin-8-yl)urea]",shorter duration,61,,,30,~100,100,> 80,0.1,1.8,
